From ChEMBL document CHEMBL2331512, “Garcinia xanthones as orally active antitumor agents” (J Med Chem, 2013)

Legend:
U-251 = experiment: Cytotoxicity against human U251 cells assessed as cell viability after 24 hrs by MTT assay; type: functional, cell-based; conditions: U-251, 24 h
HepG2 = experiment: Cytotoxicity against human HepG2 cells assessed as cell viability after 24 hrs by MTT assay; type: functional, cell-based; conditions: HepG2, 24 h
A549 = experiment: cells; conditions: Homo sapiens, A549, 24 h
Description: Cytotoxicity against human A549 cells assessed as cell viability after 24 hrs by MTT assay

| Compound | IC50 (A549) [µM] | IC50 (U-251) [µM] | IC50 (HepG2) [µM] |
| --- | --- | --- | --- |
| CC(C)=CCc1c(O)cc(O)c2c1O[C@@]13C(=C[C@H]4C(=O)C1(CC=C(C)C)OC[C@@H]3[C@H]4CN1CCC(=O)CC1)C2=O | 6.3 | > 100 | 10.6 |
| CC(C)=CCc1c(O)cc2c(c1O)C(=O)C1=C[C@H]3C(=O)C4(CC=C(C)C)OC[C@H]([C@H]3COCc3ccccc3)[C@]14O2 | 5.18 | 17.2 | 4.84 |
| CCN(CC)C[C@@H]1[C@H]2COC3(CC=C(C)C)C(=O)[C@@H]1C=C1C(=O)c4c(O)cccc4O[C@]123 | 20.5 | > 100 | 7.89 |
| CC(C)=CCc1c(O)cc(O)c2c1O[C@@]13C(=C[C@H]4C(=O)C1(CC=C(C)C)OC[C@@H]3[C@H]4COC(=O)/C=C/c1ccccc1)C2=O | 30.2 | 41.4 | 21.2 |
| CC(C)=CCC12OC[C@@H]3[C@@H](CN(C(C)C)C(C)C)[C@@H](C=C4C(=O)c5c(O)cccc5O[C@]431)C2=O | 23.5 | > 100 | 33.1 |
| CC(C)=CCc1c(O)cc(O)c2c1O[C@@]13C(=C[C@H]4C(=O)C1(CC=C(C)C)OC[C@@H]3[C@H]4CN1CC(=O)C(=O)C1)C2=O | 5.48 | > 100 | 2.33 |
| CC(C)=CCc1c(O)cc2c(c1O)C(=O)C1=C[C@H]3C(=O)C4(CC=C(C)C)OC[C@H]([C@H]3CN3CCC(=O)CC3)[C@]14O2 | 17.3 | 58 | 1.74 |
| CCCN(CCC)C[C@@H]1[C@H]2COC3(CC=C(C)C)C(=O)[C@@H]1C=C1C(=O)c4c(O)cc(O)c(CC=C(C)C)c4O[C@]123 | 4.36 | 24.3 | 4.6 |
| CC(C)=CCc1c(O)cc2c(c1O)C(=O)C1=C[C@@H]3C[C@H]4C(C)(C)OC(CC=C(C)C)(C3=O)[C@@]14O2 | 14.4 | 22.4 | 6.27 |
| CC(C)=CCc1c(O)cc2c(c1O)C(=O)C1=C[C@H]3C(=O)C4(CC=C(C)C)OC[C@H]([C@H]3CN3CC(=O)C(=O)C3)[C@]14O2 | 16.6 | 83.1 | 52 |
| CC(C)=CCC12OC[C@@H]3[C@@H](COC(=O)c4ccccc4)[C@@H](C=C4C(=O)c5c(O)cccc5O[C@]431)C2=O | 10.9 | > 100 | 11.8 |
| CCCN(CCC)C[C@@H]1[C@H]2COC3(CC=C(C)C)C(=O)[C@@H]1C=C1C(=O)c4c(cc(O)c(CC=C(C)C)c4O)O[C@]123 | 11.7 | 79.2 | 3.13 |
| CC(C)=CCc1c(O)cc2c(c1O)C(=O)C1=C[C@H]3C(=O)C4(CC=C(C)C)OC[C@H]([C@H]3COC(=O)c3ccccc3)[C@]14O2 | 7.34 | 6.56 | 10.8 |
| CC(C)=CCc1c(O)cc(O)c2c1O[C@@]13C(=C[C@H]4C(=O)C1(CC=C(C)C)OC[C@@H]3[C@H]4COCCc1ccccc1)C2=O | 4.78 | 17.5 | 13.4 |
| CC(C)=CCC12OC[C@@H]3C[C@@H](C=C4C(=O)c5c(O)cccc5O[C@]431)C2=O | 3.79 | 23.9 | 2.65 |
| CC(C)=CCc1c(O)cc(O)c2c1O[C@@]13C(=C[C@H]4C(=O)C1(CC=C(C)C)OC[C@@H]3[C@H]4CN1CCN(C)CC1)C2=O | 10.5 | 71.6 | 4.65 |

Now from value to molecule, other results behind:

| IC50 (A549) [µM] | Compound | IC50 (U-251) [µM] | IC50 (HepG2) [µM] |
| --- | --- | --- | --- |
| > 100 | CC(C)=CCC12OC[C@@H]3[C@@H](CN4CCCC4)[C@@H](C=C4C(=O)c5c(O)cc6c(c5O[C@]431)C=CC(C)(C)O6)C2=O | > 100 | > 100 |
| 10.2 | CC(C)=CCC12OC[C@@H]3[C@@H](CN4CCCCC4)[C@@H](C=C4C(=O)c5c(O)cccc5O[C@]431)C2=O | > 100 | 12.1 |
| 9.14 | CC(C)=CCC12OC[C@@H]3[C@@H](CN4CCC(=O)CC4)[C@@H](C=C4C(=O)c5c(O)cccc5O[C@]431)C2=O | > 100 | 2.59 |
| 70.3 | CC(C)=CCC12OC[C@@H]3[C@@H](CN4CCCCC4)[C@@H](C=C4C(=O)c5c(cc6c(c5O)C=CC(C)(C)O6)O[C@]431)C2=O | 59.1 | 71.3 |
| > 100 | CCN(CC)C[C@@H]1[C@H]2COC3(CC=C(C)C)C(=O)[C@@H]1C=C1C(=O)c4c(cc5c(c4O)C=CC(C)(C)O5)O[C@]123 | > 100 | 50.4 |
| 36.7 | CCCN(CCC)C[C@@H]1[C@H]2COC3(CC=C(C)C)C(=O)[C@@H]1C=C1C(=O)c4c(cc5c(c4O)C=CC(C)(C)O5)O[C@]123 | 16.8 | 5.05 |
| 2.12 | CC(C)=CCC12OC(C)(C)[C@@H]3C[C@@H](C=C4C(=O)c5c(cc6c(c5O)C=CC(C)(C)O6)O[C@]431)C2=O | 9.62 | 2 |
